Measured values reported in paper PMC10490225, “Genome-Wide Characterization of Soybean Hexokinase Genes Reveals a Positive Role of GmHXK15 in Alkali Stress Response” (Plants, 2023).

Tested on: T1, GmHXK15
T1 construct: CDS in pET32a(+) (NcoI/XhoI), His-tagged fusion, E. coli Rosetta / DE3, Ni-NTA
Test: initial velocity, Michaelis-Menten / Eadie-Hofstee
Type: biochemical, Glycine max
Conditions: assay pH, temperature and ATP not stated

OC[C@H]1OC(O)[C@H](O)[C@@H](O)[C@@H]1O (some centres unmarked) [glucose]
Km (varied glucose): 60 µM

OCC1(O)OC[C@@H](O)[C@@H](O)[C@@H]1O (some centres unmarked) [fructose]
Km (varied fructose): 1300 µM
